Results as given in patent US20060211755A1, “3-oxo-1, 3-dihydro-indazole-2-carboxylic acid amide derivatives as phospholipase inhibitors” (Eli Lilly and Company Patent Division, priority 2003, published 2006).

Target: T1, endothelial lipase (EL) (Homo sapiens, UniProt Q9Y5X9)
T1 construct: made in house; host or cells: AV12 cells (conditioned media, non-purified)
T1 sequence (Q9Y5X9 21-500): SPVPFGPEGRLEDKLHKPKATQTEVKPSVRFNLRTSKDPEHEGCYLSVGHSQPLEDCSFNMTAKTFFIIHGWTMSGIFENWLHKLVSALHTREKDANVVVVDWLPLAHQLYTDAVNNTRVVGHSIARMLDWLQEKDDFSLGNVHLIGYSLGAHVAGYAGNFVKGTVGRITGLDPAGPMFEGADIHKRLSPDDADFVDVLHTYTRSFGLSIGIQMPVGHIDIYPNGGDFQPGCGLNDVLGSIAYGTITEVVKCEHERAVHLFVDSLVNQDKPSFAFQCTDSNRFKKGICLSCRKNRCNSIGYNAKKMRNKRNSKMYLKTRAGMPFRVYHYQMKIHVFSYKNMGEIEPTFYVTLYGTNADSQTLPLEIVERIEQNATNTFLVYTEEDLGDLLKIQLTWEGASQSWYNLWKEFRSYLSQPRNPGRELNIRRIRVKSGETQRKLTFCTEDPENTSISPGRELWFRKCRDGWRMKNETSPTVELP
Experiment: Endothelial Lipase Inhibition (Thio PEG substrate, conditioned media)
Format: biochemical
Conditions: EL expressed from AV12 cells, 37° C., average of 3 experiments
Method: Methods for Characterization of Endothelial Lipase Activity
Hepatic lipase (HL) and endothelial lipase (EL) were expressed from AV12 cells. Aliquots from one day's collection of media were stored at −70° C. Activity was measured for both enzymes in conditioned media, (non-purified) where they were tested on the same plate with Thio PEG substrate (0.06 mol fraction, 7.24 mM total lipid), at 37° C. for 30 minutes. […] The OD for EL at 1× was 6.029. Therefore, when HL was used in studies where it was compared to EL, the HL was at 0.25× and EL was used at 1×. All experiments were done in triplicate with enzyme from conditioned media.
Assay conditions of assay were as follows. Both substrates for EL were run at 0.03 mol fraction, 10 mM total lipid. They were dissolved in 100 mM Hepes with 9.95 mM TX100. Both substrates for HL were run at 0.06 mol fraction and 7.25 mM total lipid. They were dissolved in 100 mM Hepes with 6.83 mM Triton X100. The EL enzyme was used at 1× and the HL enzyme was used at 0.25×. The order of addition was as follows: 10 μL of 10% DMSO, 80 μL of substrate and 10 μL of enzyme. The DMSO and substrate were incubated for 10 minutes at 37° C. before the addition of the enzyme. DTNB was added to the substrate prior to addition to the well at 0.096 mg/mL final plate. concentration. The experiments were performed 3 times. Data represents an average of these.
Several compounds were tested with HL and EL to determine their ability to inhibit these enzymes. Conditions of the assay were as mentioned in the previous paragraph except for the order of addition. In these experiments, the order of addition was 10 μL of drug/control, 10 μL of enzyme followed by a 10 minute incubation at 37° C. This was followed by the addition of the 80 μL of Thio PEG substrate containing DTNB. Each experiment was performed 3 times. Data represents an average.

| SMILES | IC50 |
| --- | --- |
| CCc1ccccc1CNC(=O)n1[nH]c2ccccc2c1=O | 0.0114 ± 0.00517 µM |
| O=C(NCc1ccccc1)n1[nH]c2ccccc2c1=O | 0.0738 ± 0.0262 µM |
| O=C(NCc1ccc2c(c1)OCO2)n1[nH]c2ccccc2c1=O | 0.0451 ± 0.0275 µM |
| O=C(NCc1csc2ccccc12)n1[nH]c2ccccc2c1=O | 0.0132 ± 0.00283 µM |

Target: T2, Recombinant Hepatic Lipase (Homo sapiens, UniProt P11150)
T2 sequence (P11150 23-499): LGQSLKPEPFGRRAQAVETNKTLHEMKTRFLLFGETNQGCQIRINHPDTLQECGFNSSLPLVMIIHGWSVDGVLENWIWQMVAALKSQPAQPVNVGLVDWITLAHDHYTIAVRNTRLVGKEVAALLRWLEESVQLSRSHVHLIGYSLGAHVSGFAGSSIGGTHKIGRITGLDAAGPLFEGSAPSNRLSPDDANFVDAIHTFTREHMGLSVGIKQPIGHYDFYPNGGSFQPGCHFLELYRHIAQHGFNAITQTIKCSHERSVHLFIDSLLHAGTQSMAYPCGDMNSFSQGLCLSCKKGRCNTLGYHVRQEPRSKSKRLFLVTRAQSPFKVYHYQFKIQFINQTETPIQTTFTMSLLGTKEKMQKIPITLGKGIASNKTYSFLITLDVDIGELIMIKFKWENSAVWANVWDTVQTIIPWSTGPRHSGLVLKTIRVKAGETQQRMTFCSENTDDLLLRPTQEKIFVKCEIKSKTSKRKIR
Experiment: Hepatic Lipase Phospholipase Assay
Format: biochemical
Conditions: ThioPEG substrate, DTNB, 37° C., 10 min preincubation; read-out: Hepatic Lipase Inhibition IC50
Method: Hepatic Lipase Phospholipase Assay
Efficacy was determined by testing various compounds of the invention in a hepatic lipase assay discussed below, and disclosed in U.S. patent application Ser. No. 09/609,871 filed Jul. 3, 2000 incorporated herein by reference in its entirety for U.S. Patent office purposes.
• Substrate Buffer A: 100 mM Hepes, pH 8.3 at 37° C. • Substrate Buffer B: 100 mM Hepes, pH 8.3 at 37° C. with 6.83 mM Triton X100 • ThioPEG: Molecular wt. of 540 • Recombinant Hepatic Lipase • Thiophospholipid: about 0.42 mM thiophospholipid in chloroform • DTNB Solution: about […] DTNB in DMSO (dimethyl sulfoxide) Hepes Buffer A
For Hepes Buffer A, there is 2.4 g Hepes/100 mL water. Therefore 36 grams of Hepes is dissolved in 1500 mL of water. The mix solution's pH is adjusted to pH 8.3 at 37° C. and brought up to 1500 mL with water. 500 mL of Buffer A is retained for the Protein Buffer.
To the remaining 1000 mL of Hepes Buffer A, 4.49 g of Triton X-100 is added and then the combination mixed on a stir plate. It is optimal that stock Buffer A not be too cold or Triton X-100 will take a long time to go into solution
For 0.42 mM substrate stock, use 0.227 mg of thioPEG/mL of Substrate Buffer B. Approximately 20 mg of sn-1 thiol substituted. Phosphatidyl Ethylene Glycol (see Examples for preparation method) is weighed into a vial, such as a scintillation vial. Enough chloroform should be added to make a 2.043 mg/mL solution. Sonicate the solution briefly until well dissolved. Next, pipette 1 mL of chloroform/substrate solution into each scintillation vial. This should give enough substrate for one full 96 well plate. Each vial is dried with nitrogen until solvent removed, swirling each vial simultaneously such that a thin film of substrate will be easily reconstituted in each buffer. Each vial is then frozen.
Daily stock preparation is performed for 9 mL of substrate (one microtiter plate). On the day of the assay, the substrate vial is removed from the freezer and combined with 9 mL of pre-warmed (37° C.) substrate buffer (the final concentration is 0.227 mg/mL). Place the buffer in a 37° C. water bath. Sonicate for 5 minutes or vortex until solution is clear before use.
The enzyme is stored at −80° C. in 100 or 50 μL portions. A 0.406 mg/mL recombinant hepatic lipase stock requires a 50-fold dilution. Therefore, to a 50 μL or 100 μL enzyme aliquot, 2450 μL or 4900 μL, respectively, of substrate Buffer A (protein buffer) should be added. The enzyme should then be stored on ice until ready to use. The protein concentration of enzyme is about 0.406 mg/mL.
To make a 20 mg/mL stock solution, 2-3 mg of DTNB is weighed and then mixed with an appropriate amount of 100% DMSO (dimethyl sulfoxide) to make the desired concentration. This mixture is sonicated for five minutes.
The above solution should be diluted 10 fold with substrate Buffer B (concentration now 2 mg/mL). Then to the thioPEG substrate solution, add 60 μl of dilute DTNB per mL of thioPEG substrate solution. Thus for 9 mL of substrate, 540 microliters of dilute DTNB (final concentration in substrate solution=0.11 mg/mL).
The test compound is dissolved in pure DMSO at […]. As shown below in Table 2, assay concentrations are 10, 1, 0.1, 0.33, 0.011, 0.0037, 0.0012 and 0.00041 μM.
Using a spectrometer, DTNB is used as a thiol coloring reagent with an incubator temperature of 37° C. Substrate Buffer B is placed in a 37° C. water bath to pre-warm. […]

| SMILES | IC50 |
| --- | --- |
| CCCCNC(=O)n1[nH]c2ccccc2c1=O | 0.368 ± 0.015 µM |
| CCCCNC(=O)n1c(=O)c2ccccc2n1C | 0.019 ± 0.0004 µM |
| CCCCCNC(=O)n1c(=O)c2ccccc2n1CCC | 0.0592 ± 0.0011 µM |
| CCCCCNC(=O)n1c(=O)c2ccccc2n1CCc1ccccc1 | 0.0971 ± 0.001 µM |
| CCCCCNC(=O)n1[nH]c2ccccc2c1=O [drawing 15] | 0.0672 ± 0.0032 µM |
